Test results as given in ChEMBL document CHEMBL4480364, “Discovery of monoamine oxidase inhibitors by medicinal chemistry approaches” (Medchemcomm, 2019).
Each block holds one molecule with its values, some of them ahead of it.

Columns and labels:
[1] = biological target: T1, Amine oxidase [flavin-containing] B (Homo sapiens, UniProt P27338); assay: Inhibition of human MAOB
T1 sequence (P27338 whole entry): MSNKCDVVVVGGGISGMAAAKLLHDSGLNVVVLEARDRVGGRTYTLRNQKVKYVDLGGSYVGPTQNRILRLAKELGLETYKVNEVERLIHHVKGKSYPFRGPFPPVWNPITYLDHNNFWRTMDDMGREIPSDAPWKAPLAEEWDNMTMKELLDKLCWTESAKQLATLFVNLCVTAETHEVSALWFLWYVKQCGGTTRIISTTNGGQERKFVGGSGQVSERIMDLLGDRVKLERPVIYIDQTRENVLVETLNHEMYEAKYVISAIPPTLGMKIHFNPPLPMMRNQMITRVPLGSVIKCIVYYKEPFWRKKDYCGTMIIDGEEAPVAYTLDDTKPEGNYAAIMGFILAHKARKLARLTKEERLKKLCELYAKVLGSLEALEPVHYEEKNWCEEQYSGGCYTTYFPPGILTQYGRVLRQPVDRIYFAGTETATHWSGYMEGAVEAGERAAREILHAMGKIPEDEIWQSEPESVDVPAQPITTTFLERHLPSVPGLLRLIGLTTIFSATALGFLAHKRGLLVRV

[2] = biological target: T2, Amine oxidase [flavin-containing] A (Homo sapiens, UniProt P21397); assay: Inhibition of human MAOA
T2 sequence (P21397 whole entry): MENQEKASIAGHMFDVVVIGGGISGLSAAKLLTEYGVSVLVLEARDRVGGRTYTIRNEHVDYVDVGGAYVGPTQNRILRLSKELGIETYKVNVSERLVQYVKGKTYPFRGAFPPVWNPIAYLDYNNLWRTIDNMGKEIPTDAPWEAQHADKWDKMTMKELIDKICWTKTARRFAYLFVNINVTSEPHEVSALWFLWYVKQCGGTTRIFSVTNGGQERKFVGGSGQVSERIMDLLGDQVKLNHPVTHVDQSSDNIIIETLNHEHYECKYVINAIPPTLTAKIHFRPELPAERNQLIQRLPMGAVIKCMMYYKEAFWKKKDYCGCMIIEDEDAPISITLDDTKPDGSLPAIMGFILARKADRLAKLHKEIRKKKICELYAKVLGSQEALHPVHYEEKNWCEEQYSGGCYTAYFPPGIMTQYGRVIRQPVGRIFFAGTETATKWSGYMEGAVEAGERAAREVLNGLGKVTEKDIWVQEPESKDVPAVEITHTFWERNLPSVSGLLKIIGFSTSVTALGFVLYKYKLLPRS

Homo sapiens [3] = species: Homo sapiens; assay: Selectivity index, ratio of IC50 for human MAOA to IC50 for human MAOB
Homo sapiens [4] = species: Homo sapiens; assay: Selectivity index, ratio of IC50 for inhibition of human MAOA to IC50 for IC50 for inhibition of human MAOB
[5] = biological target: T2, Amine oxidase [flavin-containing] A; assay: Inhibition of recombinant human MAOA using p-tyramine as substrate after 15 mins by Amplex Red dye-based fluorometric method
Homo sapiens [6] = species: Homo sapiens; assay: Selectivity index, ratio of Ki for recombinant human MAOA to Ki for recombinant human MAOB
[7] = biological target: T1, Amine oxidase [flavin-containing] B; assay: Inhibition of recombinant human MAOB using p-tyramine as substrate after 15 mins by Amplex Red dye-based fluorometric method
[8] = biological target: T2, Amine oxidase [flavin-containing] A; assay: Inhibition of recombinant human MAOA using kynuramine as substrate after 30 mins by fluorescence assay
[9] = biological target: T3, MAO-B (amine oxidase [flavin-containing] B) (Homo sapiens, UniProt P27338); assay: Inhibition of human MAOB at 1 uM relative to control
T3 sequence (P27338 whole entry): T1 sequence (P27338 whole entry)

[10] = biological target: T4, MAO-A (amine oxidase [flavin-containing] A) (Homo sapiens, UniProt P21397); assay: Inhibition of human MAOA at 1 uM relative to control
T4 sequence (P21397 whole entry): T2 sequence (P21397 whole entry)

SMILES: CCn1c(=O)c2c(nc(/C=C/c3ccc(OC)c(OC)c3)n2C)n(CC)c1=O [ISTRADEFYLLINE]
Ki [1]: 0.027 µM

SMILES: O=C(/C=C/c1ccc([N+](=O)[O-])cc1)c1ccc(Cl)s1
Ki [5]: 0.49 µM
Ratio Ki (Homo sapiens [6]): 0.19
Ki [7]: 2.55 µM

SMILES: Cc1ncc(/C=C/c2ccc(CN3CCOCC3)c(O)c2)c(CO)c1O
IC50 [8]: 16 µM

SMILES: CCc1ccc(/C=C/C(=O)c2ccc(Cl)s2)cc1
Ki [5]: 5.22 µM
Ratio Ki (Homo sapiens [6]): 16.8

Next, values leading:

Ki [1]: 36 µM
SMILES: Cn1c(=O)c2c(nc(-c3cccc(Cl)c3)n2C)n(C)c1=O

IC50 [1]: > 40 µM
SMILES: O=C1c2ccccc2C(=O)c2c(O)c(O)cc(O)c21 [PURPURIN]

IC50 [2]: 39.7 µM
Ratio IC50 (Homo sapiens [3]): 189
IC50 [1]: 0.2 µM
SMILES: O=C(SCCc1ccco1)c1cc2ccccc2oc1=O

Ki [2]: 0.14 µM
Ratio IC50 (Homo sapiens [4]): 9e-07
SMILES: COc1cc(C2=NN(C(=O)Oc3ccccc3)C(c3ccc(O)c(OC)c3)C2)ccc1O (configuration not stated)

inhibition at 1 µM [9]: 30.9%
inhibition at 1 µM [10]: 0%
Ki [1]: 3.42 µM
SMILES: Cn1c(=O)c2[nH]c(-c3cccc(NC(=O)/C=C/c4cccc(F)c4)c3)nc2n(C)c1=O
